Data as given in US20250312310A1, “Beta2-adrenergic receptor antagonists for use in treating diabetes or obesity” (NovelYeast bv, priority 2021, published 2025).
pEC50, pIC50: −log10 of the molar value. Entries after “also recorded” stand apart in the source; their conditions may differ. Where two headings read alike, the source gives them in different places. Blank lines part the entries; values can stand above or below the compound they belong to. The star is where a group is joined. Myristoyl = CCCCCCCCCCCCCC(=O)*

Assays:
[1] = tested on: everted sacs prepared from rat intestine; assay: Glucose uptake into everted sacs of rat intestine; settings: for Effect on epinephrine stimulation of glucose uptake: epinephrine 10 μM, mPKI 1 μM; for Effect on epinephrine stimulation of glucose uptake / Inhibition of the stimulation of glucose transport by mannose: ICI 118,551 10 μM; for Effect on epinephrine stimulation of glucose uptake / Effect on basal glucose transport: colchicine 5 μM; for Effect on basal glucose transport: ICI 118,551 10 μM with 2.5 mM glucose; for Inhibition of the stimulation of glucose transport by mannose: LX4211 2 μM (also inhibits glucose transport itself)
Description: Rats weighing around 150 g were fasted overnight before the experiment, and euthanized by cervical dislocation on the day of the experiment. The abdomen was opened by a midline incision, and a segment of around 35 cm of proximal intestine was isolated. The intestinal segment was rinsed with ice-cold Ringer solution (composition (mM): 140 NaCl, 5 KCl, 1 MgCl2, 2 CaCl2, 10 HEPES, 10 TRIS, gassed with 95% O2 and 5% CO2, pH 7.4), and 4-7 everted sacs were prepared, each approximately 3 cm in length, by tying off the ends of the intestinal segments with threads (46). The sacs were filled with Ringer solution containing 5 mM mannitol (Sigma Aldrich) (to maintain osmotic balance) and L-glutamine (2 mM) (Sigma Aldrich) (as an energy source). Each everted sac was transferred to a separate glass beaker containing 50 mL continuously oxygenated Ringer solution with L-glutamine (2 mM), and maintained in a water bath at 37° C. Then, epinephrine 10 μM (Sigma Aldrich), mannose 5 mM (Sigma Aldrich), ICI 118,551 10 μM (Sigma Aldrich), phlorizin 100 μM (Sigma Aldrich), LX4211 2 μM (MedKoo Biosciences, Inc. USA.) or Ringer solution were added to the respective beaker for a 15-min pre-incubation (concentrations indicate final concentrations of the compounds). For the sacs treated with ICI 118,551, phlorizin or LX 4211, the inhibitors were added before mannose or epinephrine. After pre-incubation, 5 mM glucose, or 2.5 mM glucose for the ICI 118,551 control experiment, was added to the external buffer to initiate glucose transport. […] These samples were analyzed using a glucose assay kit based on glucose oxidase (Sigma Aldrich, for details, see below). […] Also for colchicine, a TRIS-free Ringer solution was used, as TRIS interferes with colchicine activity (130). […] We noticed that it was important to take certain precautions during these experiments: the intestine was never allowed to overfill and be stretched while rinsing the intestinal lumen at the time of isolation and filling the everted sac with Ringer solution. Trapping air bubbles inside the everted sac was avoided. Also, the regions of the intestine where mucus was still present were not used for preparing everted sacs. […] The glucose concentration of the samples was assayed by a glucose assay kit (Sigma Aldrich, GOD/POD method). The assay procedure recommended by the kit was modified for small sample volumes as follows. Fifty μL of sample was transferred to a well of a 96-well plate, and at time zero, the reaction was started by adding 100 μL of assay reagent to the first well, and mixing. Each well was allowed to react for exactly 30 min at 37° C. The reaction was stopped by adding 100 μL of 12 N H2SO4 (Merck) into each well, and carefully mixing. The absorbance was measured at 540 nm with a plate reader (Tecan 200).

[2] = biological target: T1, human β2-AR (Homo sapiens, UniProt P07550); settings: Xenopus oocytes, CFTR readout
[3] = tested on: HEK-293 cells (endogenous β2-AR); settings: 1 μM epinephrine
[4] = biological target: T1, human β2-AR; assay: Calcium response (Fluo-4) in Flp-In-293 cells stably transfected with ADRB2 and GNA15; type: cell-based; settings: for Activation of the β2-AR by sugars (calcium response): sugars at 50 mM, listed in order of decreasing intensity; for IC50: concentration response curve
[5] = Caco-2 permeability assay; type: in vitro ADME, human; settings: human; for Papp A→B / Papp B→A: Caco-2, pH 7.4; for Papp at 1 μM: summary, read-out: Permeability in Caco2 assay; for recovery at 1 μM: Caco-2, pH 7.4, Caco-2, 1.0 μM
Text: (§1) Caco-2 cell permeability data of compound CD3-403 (apical to basal (A-B) and basal to apical (B-A), measured at pH 7.4 in both apical and basal compartment)

[6] = tested on: Caco-2 cells; assay: Caco-2 permeability assay; type: in vitro ADME, human
Text: as §1

[7] = biological target: T1, human β2-AR; assay: Competitive radioligand binding assay with 125I-cyanopindolol on membrane vesicles; set-up: purchased PerkinElmer RBHBE2M; settings: maximal increase with increasing concentrations
[8] = In vivo oral glucose tolerance test; set-up: species or system rat; settings: rats
Description: Animals and diet. All the experiments were approved by the ethical committee on animal experimentation of the KU Leuven. Wistar rats (Harlan Netherlands B.V.) were maintained on a 12 h light-12 h dark cycle, and fed with standard rat food chow and water ad libitum. The oral glucose tolerance test was performed on normal rats weighing around 250 g, which were fasted for 16 h before the test. Blood was sampled by tail vein puncture, and the blood glucose level was measured by glucometer (Verio OneTouch glucometer). Rats were divided in four groups: one with glucose 2 g/kg or glucose 4 g/kg (Sigma Aldrich), both in the presence or absence of CD3-403. […] Glucose or glucose along with CD3-403, dissolved in 0.9% saline, was administered to rats by oral gavage in the respective groups. […] All experiments were conducted around the same time in the morning.

[9] = 1st experiment, read-out: IC50 (nM) 1st experiment
[10] = 2nd experiment, read-out: IC50 (nM) 2nd experiment
[11] = summary of screening, read-out: IC50
[12] = Caco-2, test concentration 1.0E−06 M
[13] = second CD3 compounds overview table, epinephrine 5 nM, read-out: IC50
[14] = Caco-2, 1.0 μM, pH 7.4 in both compartments
[15] = Rattus norvegicus, 1.25 h, phlorizin 100 μM, LX4211 2 μM, glucose accumulated after 75 min

Compound: CNC[C@H](O)c1ccc(O)c(O)c1 [epinephrine]
Glucose accumulated after 10 min in the sac ([1]; epinephrine 10 μM in external medium, 5 mM glucose, without epinephrine 440±132): 833 ± 255 µM
Activation of the β2-AR (inward current and conductance) [2]: activated
Calcium response in non-transfected HEK-293 cells [3]: failed to show a calcium response
Calcium response in non-transfected HEK-293 cells ([3]; listed as Epinephrine): did not elicit a calcium response

Compound: Myristoylated PKI 14-22 amide (Myristoyl-GRTGRRNAI-NH2; SMILES CCCCCCCCCCCCCC(=O)NCC(=O)N[C@@H](CCCNC(=N)N)C(=O)N[C@H](C(=O)NCC(=O)N[C@@H](CCCNC(=N)N)C(=O)N[C@@H](CCCNC(=N)N)C(=O)N[C@@H](CC(N)=O)C(=O)N[C@@H](C)C(=O)N[C@H](C(N)=O)[C@@H](C)CC)[C@@H](C)O; UniProt P61925 15-23, looked up, fragment)
Effect on epinephrine stimulation of glucose uptake ([1]; phlorizin 100 μM): partially inhibited

Compound: COc1cc2c(c(OC)c1OC)-c1ccc(OC)c(=O)cc1[C@@H](NC(C)=O)CC2 [Colchicine]
Effect on basal glucose transport [1]: not basal glucose uptake
Effect on epinephrine stimulation of glucose uptake ([1]; phlorizin 100 μM): completely blocked

Compound: [Cl-].[Na+] [NaCl]
Increase of 125I-cyanopindolol binding [7]: roughly 35%

Compound: N[C@H]1C(O)O[C@H](CO)[C@@H](O)[C@@H]1O (stereo partly drawn) [Glucosamine]
Activation of the β2-AR by sugars (calcium response) [4]: very little effect

Compound: COc1ccc(OC)c(C(O)C(C)NC(C)(C)C)c1 (stereo not drawn) [Butoxamine, reference compound]
pIC50 [4, 13]: 4.84

Compound: CCOc1ccc(Cc2cc([C@@H]3O[C@H](SC)[C@@H](O)[C@H](O)[C@H]3O)ccc2Cl)cc1 [LX4211]
Inhibition of the stimulation of glucose transport by mannose [1]: completely inhibited
inhibition at 2 µM [1, 15]: > 90%

Compound: Cc1ccc(OCC(O)C(C)NC(C)C)c2c1CCC2 (stereo not drawn) [ICI 118,551]
Effect on basal glucose transport [1]: did not have any effect
Inhibition of the stimulation of glucose transport by mannose [1]: abolished
Effect on epinephrine stimulation of glucose uptake ([1]; phlorizin 100 μM): completely prevented

Compound: O=C(CCc1ccc(O)cc1)c1c(O)cc(O)cc1O[C@@H]1O[C@H](CO)[C@@H](O)[C@H](O)[C@H]1O [phlorizin]
inhibition at 100 µM [1, 15]: > 90%
Effect on epinephrine stimulation of glucose uptake ([1]; phlorizin 100 μM): inhibited both basal and enhanced glucose uptake

Now from value to compound, other results behind:

Activation of the β2-AR by sugars (calcium response) [4]: activated
Compound: O=CC[C@@H](O)[C@H](O)[C@H](O)CO [2 deoxy-D-glucose]

IC50 [4, 9]: 6 nM
IC50 [4, 10]: 0.6 nM
pIC50 [4, 11]: 8.22
Papp A→B ([5]; test concentration 1.0E−06 M): 54.7 ×10⁻⁶ cm/s
Papp B→A ([5]; test concentration 1.0E−06 M): 17.8 ×10⁻⁶ cm/s
Papp at 1 μM ([5]; Caco-2): 54.7 ×10⁻⁶ cm/s
efflux ratio at 1 µM [5, 12]: 0.325
MeanRecovery (A-B) ([6]; test concentration 1.0E−06 M): 71%
MeanRecovery (B-A) ([6]; test concentration 1.0E−06 M): 87%
Compound: Cc1c[nH]c2cccc(OC[C@H](O)CNC(C)(C)C)c12 [CD3-T1]

IC50 [4, 9]: 66 nM
IC50 [4, 10]: 78 nM
pIC50 [4, 11]: 7.11
Papp A→B ([5]; test concentration 1.0E−06 M): 0.1 ×10⁻⁶ cm/s
Papp B→A ([5]; test concentration 1.0E−06 M): 3.2 ×10⁻⁶ cm/s
Papp at 1 μM ([5]; Caco-2): 0.1 ×10⁻⁶ cm/s
efflux ratio at 1 µM [5, 12]: 32
MeanRecovery (A-B) ([6]; test concentration 1.0E−06 M): 76%
MeanRecovery (B-A) ([6]; test concentration 1.0E−06 M): 90%
Compound: CC(C)NC[C@@H](O)COc1cccc2[nH]cc(CC(=O)N(C)C)c12 [CD3-T3]

Activation of the β2-AR by sugars (calcium response) [4]: activated
Compound: O=C[C@H](O)[C@@H](O)[C@H](O)CO [xylose]

pIC50 [4, 11]: 7.15
Permeability class in Caco2 assay ([6]; summary): low permeability
Compound: CC(C)(C)NCC(O)COc1cccc2[nH]cc(CC(=O)NN)c12 (racemic) [CD3 X]

Activation of the β2-AR by sugars (calcium response) [4]: activated
Compound: O=C(CO)[C@@H](O)[C@H](O)[C@H](O)CO [fructose]

pEC50 ([4]; calcium response (FIG. 2d)): ~2.00
Activation of the β2-AR by sugars (calcium response) [4]: activated
Compound: maltotriose

pIC50 ([4]; 5 nM epinephrine, read-out: IC50 of the calcium response elicited by 5 nM epinephrine): 7.34
IC50 [4, 9]: 221 nM
IC50 [4, 10]: 46 nM
IC50 ([4]; old stock, read-out: IC50 (nM) old stock): 40 nM
% INHIBITION ([4]; second CD3 compounds overview table, epinephrine 5 nM): 97%
pIC50 [4, 13]: 7.40
pIC50 [4, 11]: 7.34
recovery at 1 μM ([5]; pH 7.4 in both compartments, read-out: Mean Recovery (A-B)): 83%
recovery at 1 μM ([5]; pH 7.4 in both compartments, read-out: Mean Recovery (B-A)): 94%
Papp A→B ([5]; test concentration 1.0E−06 M): 0.4 ×10⁻⁶ cm/s
Papp B→A ([5]; test concentration 1.0E−06 M): 1.3 ×10⁻⁶ cm/s
Papp at 1 μM ([5]; Caco-2): 0.4 ×10⁻⁶ cm/s
efflux ratio at 1 µM ([5]; Caco-2, 1.0 μM, B-A/A-B): 3.25
Papp A→B at 1 μM [5, 14]: 0.4 ×10⁻⁶ cm/s
Papp B→A at 1 μM [5, 14]: 1.3 ×10⁻⁶ cm/s
Cell permeability ([6]; assessed by a Caco-2 permeability assay): very low cell permeability
Efflux ([6]; test concentration 1.0E−06 M): 3.25
MeanRecovery (A-B) ([6]; test concentration 1.0E−06 M): 83%
MeanRecovery (B-A) ([6]; test concentration 1.0E−06 M): 94%
Compound: CC(C)(C)NC[C@@H](O)COc1cccc2[nH]cc(CC(N)=O)c12 [CD3-403]
Area under the curve (AUC) of the glucose increase ([8]; glucose 2 g/kg, 100% as baseline, mean±SD, control 8056±2990): 5907±2195
Increase in blood glucose level after oral glucose bolus ([8]; oral gavage, glucose 2 g/kg, 5 μM (0.05 mg/kg) CD3-403): reduced increase in blood glucose level, which was significant at 60 min
Blood glucose concentration after oral glucose bolus ([8]; oral gavage, glucose 4 g/kg, 5 μM (0.05 mg/kg) CD3-403): trend of decreased glucose concentration

Activation of the β2-AR by sugars (calcium response) [4]: activated
Compound: OC[C@H]1O[C@H](O[C@H]2O[C@H](CO)[C@@H](O)[C@H](O)[C@H]2O)[C@H](O)[C@@H](O)[C@@H]1O [trehalose]

Activation of the β2-AR by sugars (calcium response) [4]: activated
Compound: OC[C@H]1O[C@H](O[C@H]2[C@H](O)[C@@H](O)C(O)O[C@@H]2CO)[C@H](O)[C@@H](O)[C@@H]1O (mixture of isomers) [maltose]

Inhibition of the epinephrine response ([4]; 200 μM antagonist, 20 nM epinephrine): Inhibition
Inhibition of sugar responses ([4]; 200 μM antagonist, 70 mM sugar): inhibited; also recorded: Inhibition
Block of the calcium response to epinephrine ([4]; Flp-In-293 β2-AR/Gα16 cells, Fluo4 fluorescence (FIG. 2a)): blocked
Compound: CC(C)(C)NCC(O)COc1cccc2c1CC(O)C(O)C2 (stereo not drawn) [nadolol, reference compound]
